{"source": "patent US6485955B1", "about": "“Quiescent cell dipeptidyl peptidase: a novel cytoplasmic serine protease” (The Trustees of Tufts University, priority 1997, dated 2002)", "key": {"QPP": {"target": "QPP (Homo sapiens, UniProt Q9UHL4)", "assay": "AlaProAFC cleavage by PBMC cytosolic preparation (QPP peptidase activity)", "type": "biochemical", "conditions": "for QPP inhibition (inhibitory profile): comparison with DPIV profile"}, "DPIV": {"target": "DPIV (Homo sapiens, UniProt P27487)", "sequence (P27487 whole entry)": "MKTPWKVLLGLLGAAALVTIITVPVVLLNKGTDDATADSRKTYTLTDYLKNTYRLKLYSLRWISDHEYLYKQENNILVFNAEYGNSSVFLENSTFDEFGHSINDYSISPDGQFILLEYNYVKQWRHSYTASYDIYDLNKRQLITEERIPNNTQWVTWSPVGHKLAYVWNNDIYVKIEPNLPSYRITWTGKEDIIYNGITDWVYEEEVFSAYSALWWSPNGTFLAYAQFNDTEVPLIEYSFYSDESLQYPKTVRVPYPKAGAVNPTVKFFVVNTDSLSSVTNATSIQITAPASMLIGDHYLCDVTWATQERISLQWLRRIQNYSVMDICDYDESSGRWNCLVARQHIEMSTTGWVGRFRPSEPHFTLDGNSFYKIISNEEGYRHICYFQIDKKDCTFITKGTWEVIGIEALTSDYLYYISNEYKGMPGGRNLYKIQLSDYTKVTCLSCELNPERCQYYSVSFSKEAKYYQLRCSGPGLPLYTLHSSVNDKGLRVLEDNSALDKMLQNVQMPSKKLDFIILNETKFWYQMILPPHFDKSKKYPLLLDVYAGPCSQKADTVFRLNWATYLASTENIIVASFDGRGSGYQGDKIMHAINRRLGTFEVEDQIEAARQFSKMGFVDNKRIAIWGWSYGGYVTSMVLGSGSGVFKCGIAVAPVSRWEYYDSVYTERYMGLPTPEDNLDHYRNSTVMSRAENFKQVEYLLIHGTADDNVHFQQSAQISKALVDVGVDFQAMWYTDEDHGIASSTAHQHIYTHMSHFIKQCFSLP", "conditions": "cited from earlier work"}, "CD19+ B cells": {"tested_on": "CD19+ B cells", "assay": "VbP-induced death of B cells", "type": "cell-based, human"}, "[1]": {"tested_on": "peripheral blood mononuclear cells (PBMC)", "assay": "Cell death in overnight cultures of freshly isolated PBMC", "conditions": "for number of dead cells / PCD induction in resting PBMC cultures: compared to media alone"}, "[2]": {"tested_on": "phosphatidylserine (PS) on the surface of cells", "assay": "FITC-annexin V detection of surface phosphatidylserine", "type": "cell-based, human", "conditions": "cells treated with VbP"}, "CD11b+ monocytes": {"tested_on": "CD11b+ monocytes", "assay": "VbP-induced death of monocytes", "type": "cell-based, human"}, "[3]": {"tested_on": "purified T-cells (CD4+/CD8+)", "assay": "VbP-induced death of purified resting T-cells", "type": "cell-based, human", "conditions": "for effect on VbP-mediated T-cell death: added with VbP, non-cycling T-cells", "from_the_text": "(§1) Methods. […] Sorted cell populations were >90% pure."}, "activated PBMC": {"tested_on": "activated PBMC", "assay": "Induced death of activated PBMC (PHA blasts) and long term cultured cells", "type": "cell-based, human", "from_the_text": "as §1"}, "[4]": {"tested_on": "serum-starved, G0 phase fibroblasts", "assay": "Apoptosis of serum-starved G0 fibroblasts transfected with QPP transgene", "type": "cell-based", "conditions": "compared to non-QPP transfected fibroblasts", "from_the_text": "The role of QPP in protecting quiescent (non-cycling) cells from death was confirmed in fibroblasts transfected with a QPP transgene sequence using standard techniques."}, "[5]": {"conditions": "PBMC cytosolic preparation, high concentrations"}}, "note": "Like-named read-outs stand apart in the source and are kept apart here. Peptide text beside a SMILES is read from it. * marks the point of attachment. Cbz = O=C(OCc1ccccc1)*; CH2F = FC*", "data": [{"compound": "NC(=O)CI", "note": "[IAA]", "values": [{"measurement": "inhibition of cytosolic AlaProAFC cleaving enzymatic activity", "setting": "QPP", "result": "partially inhibited"}]}, {"compound": "NC(CCCCNC(=O)OCc1ccc([N+](=O)[O-])cc1)C(=O)N1CCCCC1", "note": "(stereo not shown) [Lys-piperidide, NO2-Z-Lys-piperidide]", "values": [{"measurement": "QPP inhibition (inhibitory profile)", "setting": "QPP", "result": "did inhibit QPP at higher concentrations than Lys-thiazolidide"}, {"measurement": "DPIV inhibition", "setting": "DPIV", "result": "does not inhibit DPIV"}]}, {"compound": "NC(CCCCNC(=O)OCc1ccc([N+](=O)[O-])cc1)C(=O)N1CCSC1", "note": "(stereo not shown) [Lys-thiazolidide, NO2-Z-Lys-thiazolidide]", "values": [{"measurement": "QPP inhibition (inhibitory profile)", "setting": "QPP", "result": "most potent inhibitors"}]}, {"compound": "CCN1C(=O)C=CC1=O", "note": "[NEM]", "values": [{"measurement": "inhibition of cytosolic AlaProAFC cleaving enzymatic activity", "setting": "QPP", "result": "partially inhibited"}]}, {"compound": "O=S(=O)(F)Cc1ccccc1", "note": "[PMSF]", "values": [{"measurement": "inhibition of cytosolic AlaProAFC cleaving enzymatic activity", "setting": "QPP; [5]", "result": "partially inhibited"}]}, {"compound": "Cc1ccc(S(=O)(=O)N[C@@H](CCCCN)C(=O)CCl)cc1", "note": "[TLCK]", "values": [{"measurement": "inhibition of cytosolic AlaProAFC cleaving enzymatic activity", "setting": "QPP", "result": "partially inhibited"}]}, {"compound": "CC(C)[C@H](N)C(=O)N1CCC[C@H]1B(O)O", "note": "[VbP, Val-boroPro]", "values": [{"measurement": "susceptibility to VbP-induced death", "setting": "CD19+ B cells", "result": "resistant"}, {"measurement": "time at which dead cells were apparent after addition", "setting": "[1]; PBMC cultures", "result": 4, "unit": "h"}, {"measurement": "time to maximal death", "setting": "[1]; PBMC cultures", "result": "≤ 24", "unit": "h"}, {"measurement": "maximal death", "setting": "[1]; PBMC cultures, within 24 hours", "result": "about 70%"}, {"measurement": "number of dead cells / PCD induction in resting PBMC cultures", "setting": "[1]", "result": "striking increase in the number of dead cells"}, {"measurement": "inhibition of cytosolic AlaProAFC cleaving enzymatic activity", "setting": "QPP; PBMC cytosolic preparation (110,000 g supernatant)", "result": "inhibited"}, {"measurement": "QPP inhibition (inhibitory profile)", "setting": "QPP", "result": "most potent inhibitors"}, {"measurement": "amount of PS on the surface of cells (FITC-annexin V)", "setting": "[2]", "result": "time-dependent increase"}, {"measurement": "susceptibility to VbP-induced death", "setting": "CD11b+ monocytes", "result": "resistant"}, {"measurement": "T-cell death in CD26+ versus CD26- resting T-cell subpopulations", "setting": "[3]; CD26+ and CD26- resting T-cells", "result": "to the same degree"}, {"measurement": "susceptibility to VbP-induced death", "setting": "[3]; purified T-cells (CD4+/CD8+) vs whole PBMC", "result": "greater sensitivity than whole PBMC"}, {"measurement": "susceptibility of activated PBMC to induced PCD", "setting": "activated PBMC", "result": "resistant"}, {"measurement": "susceptibility to VbP-induced PCD after return to non-cycling phase (G0)", "setting": "activated PBMC; activated PBMC maintained in culture until G0", "result": "regain sensitivity"}]}, {"compound": "COC(=O)C[C@H](NC(=O)[C@H](C)NC(=O)[C@@H](NC(=O)OCc1ccccc1)C(C)C)C(=O)CF", "note": "[Z-VADfmk] (Cbz-Val-Ala-Asp(OMe)-CH2F)", "values": [{"measurement": "effect on VbP-mediated T-cell death", "setting": "[3]", "result": "blocked"}]}, {"compound": "N=C(N)c1ccccc1", "note": "[benzamidine]", "values": [{"measurement": "inhibition of cytosolic AlaProAFC cleaving enzymatic activity", "setting": "QPP; [5]", "result": "partially inhibited"}]}, {"compound": "CC(C)[C@@H](N)C(=O)N1CCC[C@H]1B(O)O", "note": "[d-Val-d-boroPro]", "values": [{"measurement": "number of dead cells / PCD induction in resting PBMC cultures", "setting": "[1]", "result": "inactive"}]}, {"compound": "CC(=O)N[C@@H](CSC(=O)[C@]1([C@@H](O)C(C)C)NC(=O)[C@H](C)[C@@H]1O)C(=O)O", "note": "[lactacystin]", "values": [{"measurement": "number of dead cells / PCD induction in resting PBMC cultures", "setting": "[1]", "result": "does not induce PCD"}, {"measurement": "effect on VbP-mediated T-cell death", "setting": "[3]", "result": "neither the anti-Fas mAb M3 nor lactacystin had any effect"}, {"measurement": "susceptibility of activated PBMC to induced PCD", "setting": "activated PBMC", "result": "susceptible"}]}, {"compound": "(Z)-Ala-[CF═C]-Pro-NHO-Bz(4NO2) [L-125]", "values": [{"measurement": "QPP inhibition (inhibitory profile)", "setting": "QPP", "result": "did not inhibit QPP"}]}, {"compound": "recombinant QPP: recombinant quiescent cell post-prolyl dipeptidase polypeptide expressed from a transgene in fibroblasts", "values": [{"measurement": "apoptosis of quiescent fibroblasts", "setting": "[4]", "result": "inhibited apoptosis"}]}]}
